Patent publication US11198710B2, “Transgenic plant having herbicide resistance” (priority 2016, dated 2021)

How the values were obtained:
wild-type rice = experiment: Pyroxasulfone resistance test, wild-type rice, gellan gum medium, plant height; assay type: in vivo; conditions: Oryza sativa, shoot growth, 4 to 5 days, Probit method, read-out: I50
Procedure: Hoagland's mix and 3 g of gellan gum were suspended in 1 liter of distilled water and thoroughly dissolved therein by heating in a microwave. A fraction of the resultant (15 ml) was injected into a tubular bottle before it was cooled (30 ml was injected into the plate). The herbicide was simultaneously added at the time of injection of the gellan gum medium into the tubular bottle or plate, followed by thorough mixing. Rice hulls were soaked in a 50-fold diluted sodium hypochlorite solution (antiformin) (Wako) for approximately 20 minutes and then thoroughly washed with water. Sterilized seeds were soaked in distilled water and allowed to stand at 27° C. for germination (for approximately 2 days). Germinating seeds were softly planted in the gellan gum medium (plate) containing 0.25 μM BS. […] Thereafter, rice seeds that were determined to have BS resistance with the use of root elongation as the indicator were transferred to gellan gum media containing pyroxasulfone (tubal bottles) at the final concentrations of 10^−8, 10^−7, 10^−6, and 10^−5M, respectively. […] These samples were grown at 27° C. under fluorescent light illumination (14 hours of a light period and 10 hours of a dark period) for 4 to 5 days, and the plant heights were then measured. […]

[1] = system: Arabidopsis thaliana plant comprising the TaQ8GTC0 gene introduced therein; experiment: Sensitivity of Arabidopsis thaliana comprising the TaQ8GTC0 gene to herbicides on MS agar medium; assay type: in vivo; conditions: for growth of the Arabidopsis thaliana plant comprising the TaQ8GTC0 gene: KLB-718 1-1-5, 22° C.
Procedure: A medium was prepared as described below, so as to examine the pyroxasulfone resistance of the Arabidopsis thaliana plant comprising the TaQ8GTC0 gene introduced therein. At the outset, the Murashige-Skoog (MS) media (1 bag), thiamin hydrochloride (3 mg), nicotinic acid (5 mg), pyridoxin hydrochloride (0.5 mg), and sucrose (10 g) were added into a 1-liter beaker, a pH was adjusted to 5.7, the volume of the content was adjusted to 1 liter, and 8 g (0.8%) of agar was added. The resultant was autoclaved and cooled to room temperature, and pyroxasulfone (an acetone solution) was added thereto. A 30-ml fraction thereof was fractionated into a No. 2 square plate to prepare an MS medium containing pyroxasulfone at a given concentration.
Pyroxasulfone sensitivity of transgenic Arabidopsis thaliana plants was tested with the use of the medium prepared above as described below. A necessary amount of Arabidopsis thaliana dry seeds was agitated in 70% ethanol for 2 minutes and in hypochlorous acid containing 0.02% Triton-X-100 for 15 minutes, followed by washing with sterile water 10 times. Subsequently, the seeds were suspended in 1 ml of the autoclaved 0.1% agar solution, the suspension was thoroughly mixed to prepare a homogeneous solution, and a total of 30 seeds were each placed on the medium surface. The resultant was sealed with a surgical tape, allowed to stand at 4° C. for 2 days, and then transferred to 22° C. for germination.
On the basis of the concentrations above, sensitivity of the Arabidopsis thaliana plant comprising the TaQ8GTC0 gene introduced therein to VLCFAE-inhibiting herbicides was examined. The results are show in FIGS. 13 and 14. The photographs shown in FIGS. 13 and 14 were taken after the plants were grown at 22° C. for 14 days.

[2] = system: wild-type rapeseed plants (variety: Westar); experiment: Rapeseed sensitivity test 1 (post-sowing/pre-emergence soil treatment), wild type; assay type: in vivo, Brassica napus
Procedure: Wild-type rapeseed plants (variety: Westar) and transgenic rapeseed plants comprising the wheat GST gene introduced therein were subjected to Rapeseed sensitivity test 1 in plastic pots (length: 8 cm; width: 8 cm; height: 6 cm). The test was carried out in Fujino soil (sandy loam soil), and 4 seeds of wild-type rapeseed and 8 seeds of transgenic rapeseed were sown in each pot (sowing depth: 1 cm). Water dispersible granules containing 50% pyroxasulfone were applied at 5 different doses of 1, 4, 16, 63, and 250 g a.i./ha (n=3). Immediately after pyroxasulfone treatment, about 1 mm of rain was fallen with the use of artificial rainfall device, and water was supplied from the bottom of the pots. Thereafter, water was supplied from the bottom of the pot when the soil surface was dried in the pot, according to need.
The difference in the sensitivity of rapeseed to pyroxasulfone applied pre-emergence was examined (temperature: 22° C., fluorescent light), and whether or not the transgenic rapeseed plant comprising wheat GST had pyroxasulfone resistance was evaluated in terms of the plant height, the herbicidal symptoms, and the cotyledon growth. Specifically, heights of the plants were measured 2 weeks after seeds sowing of rapeseed and pyroxasulfone application, and the inhibition was assessed by comparison to control plants grown in the absence of pyroxauslfone (n=4 to 12). In FIGS. 37 to 39, “TaGST” stands for a transgenic rapeseed plant comprising the TaQ8GTC0 gene. Values in the table in FIG. 38 are expressed as the mean±standard deviation (n=4 to 12).

## Cn1nc(C(F)(F)F)c(CS(=O)(=O)C2=NOC(C)(C)C2)c1OC(F)F [Pyroxasulfone, 3-[5-(difluoromethoxy)-1-methyl-3-(trifluoromethyl)pyrazol-4-ylmethylsulfonyl]-4,5-dihydro-5,5-dimethyl-1,2-oxazole]
wild-type rice
  IC50: 0.039 µM
[1]; KLB-718 1-1-5, concentrations of Table 5, 22° C., 14 days
  sensitivity of the Arabidopsis thaliana plant comprising the TaQ8GTC0 gene to VLCFAE-inhibiting herbicides: strong resistance
[1]; all 7 lines used in the test
  pyroxasulfone resistance relative to wild-type (Columbia-0): at least 10 times
[1]; pyroxasulfone 1 μM, 14 days
  growth of the Arabidopsis thaliana plant comprising the TaQ8GTC0 gene: in the same manner as with the Control
[1]; pyroxasulfone 10 μM, 14 days
  growth of the Arabidopsis thaliana plant comprising the TaQ8GTC0 gene: sufficiently grew
[2]; Brassica napus, 336 h, 16 g a.i./ha, 2 weeks after sowing and application, 22° C., read-out: shoot growth inhibition (plant height)
  inhibition at 16 g/ha: 61.9%
[2]; pre-emergence soil treatment
  dose at which cotyledon growth was substantially completely inhibited: ≥ 16 g a.i./ha
  dose at which cotyledons became dark green (herbicidal symptoms): ≥ 16 g a.i./ha
